Laboratory results published in the CheMixHub viscosity set.
± gives the uncertainty stated by the source.

Test: xn = mol fraction of the nth substance listed

O=S1(=O)CCCC1 + CCCO
viscosity [mPa·s], 101 kPa
Details	x1 = 0.0761	x1 = 0.1702	x1 = 0.2436	x1 = 0.3357	x1 = 0.4393	x1 = 0.5374	x1 = 0.6403	x1 = 0.7554	x1 = 0.8835
303.15 K	1.648 ± 0.018	1.731 ± 0.018	1.863 ± 0.02	2.093 ± 0.023	2.443 ± 0.028	2.894 ± 0.034	3.567 ± 0.044	4.714 ± 0.061	6.855 ± 0.094
308.15 K	1.477 ± 0.015	1.551 ± 0.016	1.671 ± 0.018	1.876 ± 0.02	2.191 ± 0.024	2.595 ± 0.03	3.198 ± 0.038	4.214 ± 0.051	6.07 ± 0.076
313.15 K	1.329 ± 0.013	1.399 ± 0.014	1.506 ± 0.016	1.691 ± 0.018	1.976 ± 0.022	2.342 ± 0.026	2.884 ± 0.033	3.788 ± 0.044	5.424 ± 0.064

BrC1CCCCC1 + CC(C)CO
viscosity [mPa·s], 101.33 kPa
Details	x1 = 0.0998	x1 = 0.2024	x1 = 0.3028	x1 = 0.3991	x1 = 0.4983	x1 = 0.5946	x1 = 0.7011	x1 = 0.8014	x1 = 0.9015
298.15 K	2.871 ± 0.022	2.496 ± 0.02	2.252 ± 0.018	2.095 ± 0.017	1.981 ± 0.017	1.915 ± 0.016	1.878 ± 0.016	1.877 ± 0.016	1.915 ± 0.017
313.15 K	1.846 ± 0.015	1.656 ± 0.013	1.539 ± 0.013	1.47 ± 0.012	1.42 ± 0.012	1.401 ± 0.012	1.399 ± 0.012	1.419 ± 0.013	1.465 ± 0.013

Cc1ccc(O)cc1 + CCCCNCCCC
298.16 K, 101 kPa
Details	viscosity [mPa·s]
x1 = 0.4487	3.678 ± 0.069
x1 = 0.4877	5.428 ± 0.097
x1 = 0.5489	7.609 ± 0.13
x1 = 0.5951	11.91 ± 0.21
x1 = 0.6192	13.62 ± 0.24
x1 = 0.6457	16.41 ± 0.3
x1 = 0.6924	28.49 ± 0.57
x1 = 0.7098	33.96 ± 0.71
x1 = 0.7329	43.07 ± 0.96
x1 = 0.7632	61.06 ± 1.5
x1 = 0.7959	79.23 ± 2.3
x1 = 0.833	89.65 ± 2.7
x1 = 0.8754	78.76 ± 2.2
x1 = 0.902	60.59 ± 1.5
x1 = 0.9421	33.43 ± 0.62
x2 = 0.001967	12.1 ± 0.15
x2 = 0.003431	17.88 ± 0.25
x2 = 0.015	18.21 ± 0.26

Cc1ccc(O)cc1 + CC(=O)c1ccccc1
303.15 K, 101 kPa
Details	viscosity [mPa·s]
x2 = 0.1137	10.7 ± 0.25
x2 = 0.1526	10.25 ± 0.23
x2 = 0.3364	8.205 ± 0.16
x2 = 0.426	7.246 ± 0.13
x2 = 0.4932	6.538 ± 0.11
x2 = 0.5636	5.804 ± 0.089
x2 = 0.758	3.823 ± 0.046
x2 = 0.8099	3.31 ± 0.038
x2 = 0.9433	2.026 ± 0.019

CCCCn1cc[n+](C)c1.F[B-](F)(F)F + CN1CCCC1=O
101 kPa
Details	viscosity [mPa·s]
298.15 K, x1 = 0.2779	9.05 ± 1.2
298.15 K, x1 = 0.957	86.3 ± 11
303.15 K, x1 = 0.2779	7.82 ± 1
303.15 K, x1 = 0.3423	9.48 ± 1.2
308.15 K, x1 = 0.4657	9.19 ± 1.2

Nc1ccccc1Cl + CCC(C)O
viscosity [mPa·s], 101 kPa
Details	x1 = 0.0896	x1 = 0.1798	x1 = 0.2798	x1 = 0.3912	x1 = 0.4951	x1 = 0.5894	x1 = 0.6812	x1 = 0.7958	x1 = 0.8925
303.15 K	2.78 ± 0.6	2.94 ± 0.64	3.11 ± 0.68	3.28 ± 0.71	3.41 ± 0.74	3.51 ± 0.76	3.6 ± 0.78	3.7 ± 0.8	3.76 ± 0.82
308.15 K	2.36 ± 0.51	2.53 ± 0.55	2.69 ± 0.58	2.85 ± 0.62	2.99 ± 0.65	3.1 ± 0.67	3.19 ± 0.69	3.29 ± 0.72	3.36 ± 0.73
313.15 K	2.04 ± 0.44	2.21 ± 0.48	2.37 ± 0.52	2.53 ± 0.55	2.66 ± 0.58	2.77 ± 0.6	2.86 ± 0.62	2.96 ± 0.64	3.03 ± 0.66
318.15 K	1.77 ± 0.38	1.94 ± 0.42	2.09 ± 0.45	2.24 ± 0.49	2.37 ± 0.52	2.47 ± 0.54	2.57 ± 0.56	2.68 ± 0.58	2.74 ± 0.6
